From patent US20220000117A1, “METHOD FOR CONTROLLING DISEASES IN SMALL GRAIN CEREALS, SEED OF SMALL GRAIN CEREALS, AND METHOD FOR SUPPRESSING LODGING DAMAGE IN SMALL GRAIN CEREALS” (KUMIAI CHEMICAL INDUSTRY CO., LTD., priority 2019, published 2022)

How the values were obtained:
powdery mildew = experiment: Test Example 9: control test of wheat powdery mildew, cup in greenhouse, inoculated, Norin No. 61 (Tables 10 to 14); format: in vivo, Blumeria graminis; set-up: key to Degree of Disease Occurrence: Σ(index×leaves)/(4×leaves investigated)×100; 0 = no disease, 100 = max
Experimental: (§1) Degree of Disease Occurrence=Σ(Index×Number of Leaves of Index)/(4×Number of Investigated Leaves)×100 (1)
Seed of wheat (variety: Norin No. 61) was used, and 100 ml of suspension waters each containing the compound shown in Table 10 at an amount shown in […] (synthesis was performed in accordance with a known method, a solution dissolved in DMSO or formulated 10% wettable powder was used) were prepared. The seed having a mass of 1 kg of wheat was mixed into the suspension water with a chemical treated amount shown in Table 10, and air-dried, and then, 5 seeds were sown in a plastic cup having a diameter of 6 cm containing river sand and managed in a greenhouse. In Comparative Examples, 20 ml of the suspension water of an active ingredient, which had been adjusted to have a concentration shown in Table 10, was sprayed in a frame of 45 cm×45 cm in which a pot of wheat seedlings was placed (corresponding to 1000 L/ha) 14 days after seeding. On day 14 after seeding, conidiospores of powdery mildew were sifted over leaves of wheat seedlings and inoculated onto the leaves (after the sprayed liquid was dried in the case of Comparative Examples), a lesion area ratio of powdery mildew in a first leaf was investigated 21 days after seeding according to the criteria in Table 1, and the degree of disease occurrence was calculated by the above calculation formula (1).

septoria leaf blotch = experiment: Test Example 10: control test of septoria leaf blotch of wheat, cup in greenhouse, inoculated, variety ARKEOS (Tables 15 to 19); format: in vivo, Septoria tritici
Experimental: as §1
Seed of wheat (variety: ARKEOS) was used, and 100 ml of suspension waters each containing the compound shown in Table 15 at an amount shown in Table 15 (synthesis was performed in accordance with a known method, a liquid dissolved in a small amount of DMSO or formulated 10% wettable powder was used) were prepared. Seed having a mass of 1 kg was mixed into the suspension water with a rate shown in Examples of Table 15, and air-dried, and then, 5 seeds were sown in a plastic cup having a diameter of 6 cm containing mixed soil of river sand and horticultural soil and managed in a greenhouse. In Comparative Examples, 20 ml of suspension water of an active ingredient, which had been adjusted to have a concentration shown in Table 15 to 19, was sprayed in a frame of 45 cm×45 cm in which a pot of wheat seedlings was placed (corresponding to 1000 L/ha) 14 days after seeding. On day 14 after seeding, a spore suspension in which conidiospores of septoria leaf blotch are suspended was sprayed and inoculated on leaves of wheat seedlings (after the sprayed liquid was dried in the case of Comparative Examples), a lesion area ratio of septoria leaf blotch in a second leaf was investigated approximately 35 days after seeding according to the criteria in Table 1, and the degree of disease occurrence was calculated by the above calculation formula (1).

[1] = Table 12 run (different day), Foliage Treatment, spray 10 ppm (10 g/ha)
[2] = Table 12 run (different day), Foliage Treatment, spray 50 ppm (50 g/ha)
[3] = Table 12 run (different day), Seed Treatment 0.1 g/Seed 1 kg (10 g/ha)
[4] = Table 12 run (different day), Seed Treatment 0.5 g/Seed 1 kg (50 g/ha)
[5] = Table 14, Foliage Treatment, spray 50 ppm suspension water (corresponding to 50 g/ha) 14 days after seeding, untreated 70.0
[6] = Table 14, Foliage Treatment, spray 50 ppm suspension water (corresponding to 50 g/ha) 14 days after seeding, untreated 100.0
[7] = Table 14, Foliage Treatment, spray 100 ppm suspension water (corresponding to 100 g/ha) 14 days after seeding, untreated 70.0
[8] = Table 14, Foliage Treatment, spray 100 ppm suspension water (corresponding to 100 g/ha) 14 days after seeding, untreated 100.0
[9] = Table 14, Seed Treatment, 0.5 g/Seed 1 kg (corresponding to 50 g/ha), first leaf, 21 days after seeding, untreated 70.0
[10] = Table 14, Seed Treatment, 0.5 g/Seed 1 kg (corresponding to 50 g/ha), first leaf, 21 days after seeding, untreated 100.0
[11] = Table 14, Seed Treatment, 1 g/Seed 1 kg (corresponding to 100 g/ha), first leaf, 21 days after seeding, untreated 70.0
[12] = Table 14, Seed Treatment, 1 g/Seed 1 kg (corresponding to 100 g/ha), first leaf, 21 days after seeding, untreated 100.0
[13] = Table 11 run (different day), Foliage Treatment, spray 50 ppm (50 g/ha)
[14] = Table 11 run (different day), Seed Treatment 0.5 g/Seed 1 kg (50 g/ha)
[15] = Table 13 run (different day), Foliage Treatment, spray 10 ppm (10 g/ha)
[16] = Table 13 run (different day), Foliage Treatment, spray 50 ppm (50 g/ha)
[17] = Table 13 run (different day), Seed Treatment 0.1 g/Seed 1 kg (10 g/ha)
[18] = Table 13 run (different day), Seed Treatment 0.5 g/Seed 1 kg (50 g/ha)
[19] = Table 18, Foliage Treatment, spray 50 ppm (50 g/ha)
[20] = Table 18, Seed Treatment 0.5 g/Seed 1 kg (50 g/ha)

SMILES: N=C(Nc1ccccc1)c1snc(Cl)c1Cl [Compound (16)]
- Degree of Disease Occurrence (powdery mildew; [1]): 63.3
- Disease Leaf Rate (%) (powdery mildew; [1]): 100.0%
- Degree of Disease Occurrence (powdery mildew; [2]): 43.3
- Disease Leaf Rate (%) (powdery mildew; [2]): 80.0%
- Degree of Disease Occurrence (powdery mildew; [3]): 22.5
- Disease Leaf Rate (%) (powdery mildew; [3]): 65.0%
- Degree of Disease Occurrence (powdery mildew; [4]): 6.3
- Disease Leaf Rate (%) (powdery mildew; [4]): 16.7%
- Degree of Disease Occurrence (powdery mildew; Table 14, Foliage Treatment, spray 10 ppm suspension water (corresponding to 10 g/ha) 14 days after seeding, untreated 70.0): 32.6
- Disease Leaf Rate (%) (powdery mildew; Table 14, Foliage Treatment, spray 10 ppm suspension water (corresponding to 10 g/ha) 14 days after seeding, untreated 100.0): 80.6%
- Degree of Disease Occurrence (powdery mildew; [5]): 19.6
- Disease Leaf Rate (%) (powdery mildew; [6]): 53.3%
- Degree of Disease Occurrence (powdery mildew; [7]): 29.2
- Disease Leaf Rate (%) (powdery mildew; [8]): 80.6%
- Degree of Disease Occurrence (powdery mildew; Table 14, Seed Treatment, 0.1 g/Seed 1 kg (corresponding to 10 g/ha), first leaf, 21 days after seeding, untreated 70.0): 15.2
- Disease Leaf Rate (%) (powdery mildew; Table 14, Seed Treatment, 0.1 g/Seed 1 kg (corresponding to 10 g/ha), first leaf, 21 days after seeding, untreated 100.0): 60.8%
- Degree of Disease Occurrence (powdery mildew; [9]): 8.9
- Disease Leaf Rate (%) (powdery mildew; [10]): 35.4%
- Degree of Disease Occurrence (powdery mildew; [11]): 18.2
- Disease Leaf Rate (%) (powdery mildew; [12]): 50.0%
- Degree of Disease Occurrence (septoria leaf blotch; Table 19, Foliage Treatment, spray 50 ppm suspension water (corresponding to 50 g/ha) 14 days after seeding, untreated 45.0): 38.3
- Disease Leaf Rate (%) (septoria leaf blotch; Table 19, Foliage Treatment, spray 50 ppm suspension water (corresponding to 50 g/ha) 14 days after seeding, untreated 98.0): 99.7%
- Degree of Disease Occurrence (septoria leaf blotch; Table 19, Seed Treatment, 0.5 g/Seed 1 kg (corresponding to 50 g/ha), untreated 45.0): 29.4
- Disease Leaf Rate (%) (septoria leaf blotch; Table 19, Seed Treatment, 0.5 g/Seed 1 kg (corresponding to 50 g/ha), untreated 98.0): 82.5%

SMILES: COC(=N)c1snc(Cl)c1Cl [Compound (11)]
- Degree of Disease Occurrence (powdery mildew; [13]): 97.9
- Disease Leaf Rate (%) (powdery mildew; [13]): 100%
- Degree of Disease Occurrence (powdery mildew; [14]): 79.7
- Disease Leaf Rate (%) (powdery mildew; [14]): 100%
- Degree of Disease Occurrence (powdery mildew; [15]): 72.6
- Disease Leaf Rate (%) (powdery mildew; [15]): 98.4%
- Degree of Disease Occurrence (powdery mildew; [16]): 67.6
- Disease Leaf Rate (%) (powdery mildew; [16]): 99.6%
- Degree of Disease Occurrence (powdery mildew; [17]): 50.1
- Disease Leaf Rate (%) (powdery mildew; [17]): 95.0%
- Degree of Disease Occurrence (powdery mildew; [18]): 40.8
- Disease Leaf Rate (%) (powdery mildew; [18]): 100.0%
- Degree of Disease Occurrence (septoria leaf blotch; Table 17, Foliage Treatment, spray 10 ppm suspension water (corresponding to 10 g/ha) 14 days after seeding, untreated 50.0): 31.7
- Disease Leaf Rate (%) (septoria leaf blotch; Table 17, Foliage Treatment, spray 10 ppm suspension water (corresponding to 10 g/ha) 14 days after seeding, untreated 100.0): 93.3%
- Degree of Disease Occurrence (septoria leaf blotch; Table 17, Foliage Treatment, spray 50 ppm suspension water (corresponding to 50 g/ha) 14 days after seeding, untreated 50.0): 35.0
- Disease Leaf Rate (%) (septoria leaf blotch; Table 17, Foliage Treatment, spray 50 ppm suspension water (corresponding to 50 g/ha) 14 days after seeding, untreated 100.0): 100.0%
- Degree of Disease Occurrence (septoria leaf blotch; Table 17, Foliage Treatment, spray 100 ppm suspension water (corresponding to 100 g/ha) 14 days after seeding, untreated 50.0): 41.7
- Disease Leaf Rate (%) (septoria leaf blotch; Table 17, Foliage Treatment, spray 100 ppm suspension water (corresponding to 100 g/ha) 14 days after seeding, untreated 100.0): 100.0%
- Degree of Disease Occurrence (septoria leaf blotch; Table 17, Seed Treatment, 0.1 g/Seed 1 kg (corresponding to 10 g/ha), untreated 50.0): 22.5
- Disease Leaf Rate (%) (septoria leaf blotch; Table 17, Seed Treatment, 0.1 g/Seed 1 kg (corresponding to 10 g/ha), untreated 100.0): 80.0%
- Degree of Disease Occurrence (septoria leaf blotch; Table 17, Seed Treatment, 0.5 g/Seed 1 kg (corresponding to 50 g/ha), untreated 50.0): 18.8
- Disease Leaf Rate (%) (septoria leaf blotch; Table 17, Seed Treatment, 0.5 g/Seed 1 kg (corresponding to 50 g/ha), untreated 100.0): 63.8%
- Degree of Disease Occurrence (septoria leaf blotch; Table 17, Seed Treatment, 1 g/Seed 1 kg (corresponding to 100 g/ha), untreated 50.0): 26.5
- Disease Leaf Rate (%) (septoria leaf blotch; Table 17, Seed Treatment, 1 g/Seed 1 kg (corresponding to 100 g/ha), untreated 100.0): 67.5%

SMILES: N=C(N)c1snc(Cl)c1Cl [Compound (14)]
- Degree of Disease Occurrence (powdery mildew; [5]): 18.3
- Disease Leaf Rate (%) (powdery mildew; [6]): 61.1%
- Degree of Disease Occurrence (powdery mildew; [7]): 14.4
- Disease Leaf Rate (%) (powdery mildew; [8]): 44.4%
- Degree of Disease Occurrence (powdery mildew; [9]): 7.8
- Disease Leaf Rate (%) (powdery mildew; [10]): 25.0%
- Degree of Disease Occurrence (powdery mildew; [11]): 11.3
- Disease Leaf Rate (%) (powdery mildew; [12]): 40.0%
- Degree of Disease Occurrence (septoria leaf blotch; [19]): 48.3
- Disease Leaf Rate (%) (septoria leaf blotch; [19]): 100.0%
- Degree of Disease Occurrence (septoria leaf blotch; [20]): 42.5
- Disease Leaf Rate (%) (septoria leaf blotch; [20]): 90.0%
